From the NIST ThermoML archive (doi:10.1016/j.jct.2015.03.019)
± gives the expanded uncertainty stated by the source.

Experiment: molar heat capacity at constant pressure
Conditions: 101.33 kPa, Crystal, Small (less than 1 g) adiabatic calorimetry

CC(C)(C)c1ccc(Oc2ccccc2)cc1 [4-tert-butylphenyl phenyl ether]
molar heat capacity at constant pressure (46.48 K): 67.56 ± 0.62 J/K/mol
molar heat capacity at constant pressure (47.28 K): 68.56 ± 0.63 J/K/mol
molar heat capacity at constant pressure (48.08 K): 69.68 ± 0.64 J/K/mol
molar heat capacity at constant pressure (48.87 K): 70.7 ± 0.65 J/K/mol
molar heat capacity at constant pressure (49.67 K): 71.74 ± 0.67 J/K/mol
molar heat capacity at constant pressure (50 K): 72.09 ± 0.5 J/K/mol
molar heat capacity at constant pressure (50.47 K): 72.8 ± 0.67 J/K/mol
molar heat capacity at constant pressure (51.27 K): 73.72 ± 0.68 J/K/mol
molar heat capacity at constant pressure (52.07 K): 74.77 ± 0.69 J/K/mol
molar heat capacity at constant pressure (52.87 K): 75.83 ± 0.7 J/K/mol
molar heat capacity at constant pressure (53.67 K): 77.23 ± 0.71 J/K/mol
molar heat capacity at constant pressure (56.08 K): 80.21 ± 0.73 J/K/mol
molar heat capacity at constant pressure (56.88 K): 81.22 ± 0.74 J/K/mol
molar heat capacity at constant pressure (57.68 K): 82.24 ± 0.75 J/K/mol
molar heat capacity at constant pressure (58.49 K): 83.23 ± 0.75 J/K/mol
molar heat capacity at constant pressure (59.3 K): 84.31 ± 0.75 J/K/mol
molar heat capacity at constant pressure (60 K): 85.31 ± 0.58 J/K/mol
molar heat capacity at constant pressure (60.1 K): 85.31 ± 0.75 J/K/mol
molar heat capacity at constant pressure (60.91 K): 86.3 ± 0.75 J/K/mol
molar heat capacity at constant pressure (61.71 K): 87.3 ± 0.83 J/K/mol
molar heat capacity at constant pressure (62.51 K): 88.3 ± 0.83 J/K/mol
molar heat capacity at constant pressure (64.11 K): 90.88 ± 0.83 J/K/mol
molar heat capacity at constant pressure (64.92 K): 91.87 ± 0.83 J/K/mol
molar heat capacity at constant pressure (65.72 K): 92.71 ± 0.83 J/K/mol
molar heat capacity at constant pressure (66.52 K): 93.62 ± 0.83 J/K/mol
molar heat capacity at constant pressure (67.33 K): 94.45 ± 0.83 J/K/mol
molar heat capacity at constant pressure (68.13 K): 95.12 ± 0.83 J/K/mol
molar heat capacity at constant pressure (68.94 K): 96.12 ± 0.91 J/K/mol
molar heat capacity at constant pressure (69.74 K): 96.95 ± 0.91 J/K/mol
molar heat capacity at constant pressure (70 K): 97.28 ± 0.5 J/K/mol
molar heat capacity at constant pressure (70.74 K): 97.94 ± 0.91 J/K/mol
molar heat capacity at constant pressure (71.95 K): 99.19 ± 0.91 J/K/mol
molar heat capacity at constant pressure (73.16 K): 100.61 ± 0.91 J/K/mol
molar heat capacity at constant pressure (74.36 K): 101.94 ± 0.91 J/K/mol
molar heat capacity at constant pressure (75.56 K): 102.6 ± 0.91 J/K/mol
molar heat capacity at constant pressure (76.77 K): 103.6 ± 0.91 J/K/mol
molar heat capacity at constant pressure (77.98 K): 104.6 ± 0.91 J/K/mol
molar heat capacity at constant pressure (79.18 K): 105.68 ± 1 J/K/mol
molar heat capacity at constant pressure (80 K): 106.59 ± 0.58 J/K/mol
molar heat capacity at constant pressure (80.21 K): 106.67 ± 0.58 J/K/mol
molar heat capacity at constant pressure (80.39 K): 106.92 ± 0.58 J/K/mol
molar heat capacity at constant pressure (81.01 K): 107.17 ± 0.67 J/K/mol
molar heat capacity at constant pressure (81.6 K): 108.09 ± 0.67 J/K/mol
molar heat capacity at constant pressure (81.81 K): 108.17 ± 0.67 J/K/mol
molar heat capacity at constant pressure (82.62 K): 108.84 ± 0.67 J/K/mol
molar heat capacity at constant pressure (82.8 K): 109.25 ± 0.67 J/K/mol
molar heat capacity at constant pressure (83.42 K): 109.58 ± 0.67 J/K/mol
molar heat capacity at constant pressure (84.01 K): 110.25 ± 0.67 J/K/mol
molar heat capacity at constant pressure (85.83 K): 111.83 ± 0.67 J/K/mol
molar heat capacity at constant pressure (86.63 K): 112.66 ± 0.67 J/K/mol
molar heat capacity at constant pressure (87.43 K): 113.33 ± 0.67 J/K/mol
molar heat capacity at constant pressure (88.23 K): 114.16 ± 0.67 J/K/mol
molar heat capacity at constant pressure (89.03 K): 115.07 ± 0.67 J/K/mol
molar heat capacity at constant pressure (89.84 K): 115.9 ± 0.67 J/K/mol
molar heat capacity at constant pressure (90 K): 115.99 ± 0.58 J/K/mol
molar heat capacity at constant pressure (90.64 K): 116.65 ± 0.67 J/K/mol
molar heat capacity at constant pressure (91.44 K): 117.48 ± 0.67 J/K/mol
molar heat capacity at constant pressure (92.24 K): 118.23 ± 0.67 J/K/mol
molar heat capacity at constant pressure (93.05 K): 119.15 ± 0.67 J/K/mol
molar heat capacity at constant pressure (93.85 K): 119.73 ± 0.67 J/K/mol
molar heat capacity at constant pressure (94.65 K): 120.48 ± 0.67 J/K/mol
molar heat capacity at constant pressure (95.46 K): 121.14 ± 0.67 J/K/mol
molar heat capacity at constant pressure (96.26 K): 121.97 ± 0.67 J/K/mol
molar heat capacity at constant pressure (97.06 K): 122.72 ± 0.67 J/K/mol
molar heat capacity at constant pressure (97.87 K): 123.22 ± 0.67 J/K/mol
molar heat capacity at constant pressure (98.67 K): 124.05 ± 0.67 J/K/mol
molar heat capacity at constant pressure (99.47 K): 125.13 ± 0.75 J/K/mol
molar heat capacity at constant pressure (100 K): 125.71 ± 0.58 J/K/mol
molar heat capacity at constant pressure (100.28 K): 125.8 ± 0.75 J/K/mol
molar heat capacity at constant pressure (101.28 K): 127.13 ± 0.75 J/K/mol
molar heat capacity at constant pressure (102.48 K): 128.13 ± 0.75 J/K/mol
molar heat capacity at constant pressure (103.69 K): 129.21 ± 0.75 J/K/mol
molar heat capacity at constant pressure (104.89 K): 130.45 ± 0.75 J/K/mol
molar heat capacity at constant pressure (106.1 K): 131.45 ± 0.75 J/K/mol
molar heat capacity at constant pressure (107.32 K): 132.78 ± 0.75 J/K/mol
molar heat capacity at constant pressure (108.53 K): 133.86 ± 0.75 J/K/mol
molar heat capacity at constant pressure (109.74 K): 134.86 ± 0.75 J/K/mol
molar heat capacity at constant pressure (110 K): 135.19 ± 0.67 J/K/mol
molar heat capacity at constant pressure (110.96 K): 136.11 ± 0.75 J/K/mol
molar heat capacity at constant pressure (112.17 K): 137.19 ± 0.75 J/K/mol
molar heat capacity at constant pressure (113.39 K): 138.27 ± 0.75 J/K/mol
molar heat capacity at constant pressure (114.61 K): 139.43 ± 0.75 J/K/mol
molar heat capacity at constant pressure (115.83 K): 140.51 ± 0.75 J/K/mol
molar heat capacity at constant pressure (117.05 K): 141.6 ± 0.75 J/K/mol
molar heat capacity at constant pressure (118.28 K): 142.59 ± 0.83 J/K/mol
molar heat capacity at constant pressure (119.5 K): 143.76 ± 0.83 J/K/mol
